Source: patent publication US20230129359A1, “MUSCARINIC RECEPTOR 4 ANTAGONISTS AND METHODS OF USE” (Neurocrine Biosciences, Inc., priority 2020, published 2023)

Each compound was assayed against T1, human M4 receptor (Homo sapiens, UniProt P08173) (assay: Radioligand ([3H]N-methylscopolamine) binding assay, membranes from CHO cells expressing human M4 receptor). Settings: Ki against human M4 receptor; membranes from CHO cells; tritiated N-methylscopolamine 1.5 nM; read-out: K.
T1 construct: expressed in transfected cells; host or cells: CHO cells
T1 sequence (P08173 1-479): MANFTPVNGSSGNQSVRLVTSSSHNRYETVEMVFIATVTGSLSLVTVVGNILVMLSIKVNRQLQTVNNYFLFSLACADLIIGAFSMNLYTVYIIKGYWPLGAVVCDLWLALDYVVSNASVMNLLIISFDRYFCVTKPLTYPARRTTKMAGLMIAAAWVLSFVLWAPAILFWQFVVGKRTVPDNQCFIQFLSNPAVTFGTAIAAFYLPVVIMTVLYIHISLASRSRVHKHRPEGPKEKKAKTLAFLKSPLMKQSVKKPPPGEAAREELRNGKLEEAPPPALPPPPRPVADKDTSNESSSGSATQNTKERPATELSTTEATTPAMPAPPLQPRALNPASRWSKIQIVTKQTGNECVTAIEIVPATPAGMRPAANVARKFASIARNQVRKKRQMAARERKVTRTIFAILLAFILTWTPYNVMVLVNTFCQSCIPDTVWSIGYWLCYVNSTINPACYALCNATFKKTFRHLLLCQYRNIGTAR
Method: Binding affinity (Ki) for the compounds was measured by inhibition of radioligand binding to membranes from CHO cells expressing human M4 receptor. Membranes were prepared by nitrogen cavitation and differential centrifugation as previously described (Hoare et al., Mol. Pharmacol. 2003 March; 63(3): 751-65). The radioligand employed was tritiated N-methylscopolamine, used at a concentration of 1.5 nM. A dose-response of twelve concentrations of compound was used, ranging from […]. The assay buffer was 50 mM HEPES, 100 mM NaCl, 5 mM MgCl2, 1 mM ethylenediaminetetraacetic acid, pH-adjusted to pH 7.4. Membranes, radioligand and compound were incubated together for 90 minutes at 37° C., in a total volume of 150 μL in a 96-well plate. Receptor-bound radioligand was then collected by harvesting the assay over glass fiber filters pretreated with polyethylenimine to trap the cell membranes, using rapid vacuum filtration. Harvesting and radioactivity counting was conducted as previously described (see, e.g., Hoare et al., Mol. Pharmacol. 2003 63(3):751-65); Erratum at Mol. Pharmacol. 2005 July; 68(1): 260).
`C[C@@H]1CN(c2nc3ccc(C(F)(F)F)cc3o2)C[C@H](C)N1C(=O)OC1CC2(C1)CN(Cc1ccccc1)C2` [Compound 428, 2-benzyl-2-azaspiro[3.3]heptan-6-yl (2R,6S)-2,6-dimethyl-4-[6-(trifluoromethyl)-1,3-benzoxazol-2-yl]piperazine-1-carboxylate] was tested, and the Ki was < 10 nM. In the case of `C[C@@H]1CN(c2nc3ccc(F)cc3s2)[C@@H](C)CN1C(=O)OC1CC2(C1)CN(Cc1ccc(F)cc1)C2` [Compound 383, 2-[(4-fluorophenyl)methyl]-2-azaspiro[3.3]heptan-6-yl (2R,5S)-4-(6-fluoro-1,3-benzothiazol-2-yl)-2,5-dimethylpiperazine-1-carboxylate], the Ki is reported as < 10 nM. A Ki of 10 to 100 nM was found for `C[C@@H]1CN(c2ncc(C(F)(F)F)cn2)[C@H](C)CN1C(=O)NC1CC2(C1)CN(Cc1ccccc1)C2` [Compound 38, (2R,5R)-N-{2-benzyl-2-azaspiro[3.3]heptan-6-yl}-2,5-dimethyl-4-[5-(trifluoromethyl)pyrimidin-2-yl]piperazine-1-carboxamide] in this work. `C[C@@H]1CN(c2nc3ccc(C(F)(F)F)cc3s2)CCN1C(=O)NC1CC2(C1)CN(Cc1ccccc1)C2` [Compound 225, (2R)-N-{2-bnezyl-2-azaspiro[3.3]heptan-6-yl}-2-methyl-4-[6-(trifluoromethyl)-1,3-benzothiazol-2-yl]piperazine-1-carboxamide] was tested, and the Ki was < 10 nM. `C[C@@H]1CN(c2nc3cc(C(F)(F)F)cnc3s2)[C@@H](C)CN1C(=O)OC1CC2(C1)CN(Cc1ccccc1)C2` [Compound 367, 2-benzyl-2-azaspiro[3.3]heptan-6-yl (2R,5S)-2,5-dimethyl-4-[6-(trifluoromethyl)-[1,3]thiazolo[4,3-b]pyridin-2-yl]piperazine-1-carboxylate] was tested, and the Ki was < 10 nM. A Ki of 100 to 1000 nM was found for `C[C@@H]1CN(c2cncc(C(F)(F)F)n2)C[C@@H](C)N1C(=O)OC1CC2(C1)CN(Cc1ccccc1)C2` [Compound 166, 2-benzyl-2-azaspiro[3.3]heptan-6-yl (2R,6R)-2,6-dimethyl-4-[6-(trifluoromethyl)pyrazin-2-yl]piperazine-1-carboxylate] in this work. A Ki of 10 to 100 nM was found for `C[C@@H]1CN(c2cnc(C(F)(F)F)cn2)[C@@H](C)CN1C(=O)NC1CC2(C1)CN(Cc1ccc(F)cc1)C2` [Compound 269, (2R,5S)-N-{2-[(4-fluorophenyl)methyl]-2-azaspiro[3.3]heptan-6-yl}-2,5-dimethyl-4-[5-(trifluoromethyl)pyrazin-2-yl]piperazine-1-carboxamide] in this work. For `C[C@@H]1CN(c2cnc(OC(F)(F)F)cn2)C[C@H](C)N1C(=O)OC1CC2(C1)CN(Cc1ccccc1)C2` [Compound 202, 2-benzyl-2-azaspiro[3.3]heptan-6-yl (2R,6S)-2,6-dimethyl-4-[5-(trifluoromethoxy)pyrazin-2-yl]piperazine-1-carboxylate], the Ki was < 10 nM. A Ki of 10 to 100 nM was found for `C[C@@H]1CN(c2ncc(C(F)(F)F)cn2)[C@@H](C)CN1C(=O)OC1(C(F)F)CC2(CN(Cc3ccccc3)C2)C1` [Compound 346, 2-benzyl-6-(difluoromethyl)-2-azaspiro[3.3]heptan-6-yl (2R,5S)-2,5-dimethyl-4-[5-(trifluoromethyl)pyrimidin-2-yl]piperazine-1-carboxylate] in this work. A Ki of 10 to 100 nM was found for `C[C@@H]1CN(c2ncc(F)cn2)C[C@H](C)N1C(=O)OC1CC2(C1)CN(Cc1ccc(F)cc1)C2` [Compound 468, 2-[(4-fluorophenyl)methyl]-2-azaspiro[3.3]heptan-6-yl (2R,6S)-4-(5-fluoropyrimidin-2-yl)-2,6-dimethylpiperazine-1-carboxylate] in this work. A Ki of 100 to 1000 nM was found for `C[C@@H]1CN(c2ncc3ccccc3n2)C[C@H](C)N1C(=O)OC1CC2(C1)CN(Cc1ccccc1)C2` [Compound 377, 2-benzyl-2-azaspiro[3.3]heptan-6-yl (2R,6S)-2,6-dimethyl-4-(quinazolin-2-yl)piperazine-1-carboxylate] in this work. `C[C@@H]1CN(c2ncc(C(F)(F)F)cn2)C[C@H](C)N1C(=O)OC1CC2(C1)CN(CC1CC1(C)C)C2` (stereo partly drawn) [Compound 153, 2-[(2,2-dimethylcyclopropyl)methyl]-2-azaspiro[3.3]heptan-6-yl (2R,6S)-2,6-dimethyl-4-[5-(trifluoromethyl)pyrimidin-2-yl]piperazine-1-carboxylate] was tested, and the Ki was < 10 nM. A Ki of 100 to 1000 nM was found for `C[C@@H]1CN(c2ncc(C(F)(F)F)cn2)C[C@H](C)N1C(=O)NC1CC2(C1)CN(CCc1ccccc1)C2` [Compound 311, (2R,6S)-2,6-dimethyl-N-[2-(2-phenylethyl)-2-azaspiro[3.3]heptan-6-yl]-4-[5-(trifluoromethyl)pyrimidin-2-yl]piperazine-1-carboxamide] in this work. With `C[C@@H]1CN(c2ncc3cc(F)ccc3n2)[C@@H](C)CN1C(=O)OC1CC2(C1)CN(Cc1ccccc1)C2` [Compound 484, 2-benzyl-2-azaspiro[3.3]heptan-6-yl (2R,5S)-4-(6-fluoroquinazolin-2-yl)-2,5-dimethylpiperazine-1-carboxylate] the Ki was < 10 nM. A Ki of 10 to 100 nM was found for `C[C@@H]1CN(c2cnc3cc(F)ccc3n2)[C@@H](C)CN1C(=O)OC1CC2(C1)CN(Cc1ccccc1)C2` [Compound 363, 2-benzyl-2-azaspiro[3.3]heptan-6-yl (2R,5S)-4-(6-fluoroquinoxalin-2-yl)-2,5-dimethylpiperazine-1-carboxylate] in this work. With `C[C@@H]1CN(c2ncc(C(F)(F)F)cn2)[C@@H](C)CN1C(=O)NC1CC2(C1)CN(Cc1ccc(Cl)cc1)C2` [Compound 256, (2R,5S)-N-{2-[(4-chlorophenyl)methyl]-2-azaspiro[3.3]heptan-6-yl}-2,5-dimethyl-4-[5-(trifluoromethyl)pyrimidin-2-yl]piperazine-1-carboxamide] the Ki was < 10 nM. `C[C@@H]1CN(c2ncc(C(F)(F)F)c(N)n2)C[C@H](C)N1C(=O)NC1CC2(C1)CN(Cc1ccccc1)C2` [Compound 248, (2R,6S)-4-[4-amino-5-(trifluoromethyl)pyrimidin-2-yl]-N-{2-benzyl-2-azaspiro[3.3]heptan-6-yl}-2,6-dimethylpiperazine-1-carboxamide] was tested, and the Ki was < 10 nM. A Ki of 10 to 100 nM was found for `CC(C)c1ccc(CN2CC3(CC(NC(=O)N4[C@H](C)CN(c5ncc(C(F)(F)F)cn5)C[C@@H]4C)C3)C2)cc1` [Compound 316, (2R,6S)-2,6-dimethyl-N-(2-{[4-(propan-2-yl)phenyl]methyl}-2-azaspiro[3.3]heptan-6-yl)-4-[5-(trifluroomethyl)pyrimidin-2-yl]piperazine-1-carboxamide] in this work. For `C[C@@H]1CN(c2cc(F)c(F)c(F)c2)C[C@H](C)N1C(=O)NC1CC2(C1)CN(Cc1ccccc1)C2` [Compound 45, (2R,6S)-N-{2-benzyl-2-azaspiro[3.3]heptan-6-yl}-2,6-dimethyl-4-(3,4,5-trifluroophenyl)piperazine-1-carboxamide], the Ki was < 10 nM. For `C[C@@H]1CN(c2ncc(C(F)(F)F)cn2)C[C@H](C)N1C(=O)NC1CC2(C1)CN(Cc1ccc3occc3c1)C2` [Compound 298, (2R,6S)-N-[2-(1-benzofuran-5-ylmethyl)-2-azaspiro[3.3]heptan-6-yl]-2,6-dimethyl-4-[5-(trifluoromethyl)pyrimidin-2-yl]piperazine-1-carboxamide], the Ki was < 10 nM. A Ki of 10 to 100 nM was found for `C[C@@H]1CN(c2cnc3ccccc3n2)[C@@H](C)CN1C(=O)OC1CC2(C1)CN(Cc1ccc(F)cc1)C2` [Compound 394, 2-[(4-fluorophenyl)methyl]-2-azaspiro[3.3]heptan-6-yl (2R,5S)-2,5-dimethyl-4-(quinoxalin-2-yl)piperazine-1-carboxylate] in this work. A Ki of 10 to 100 nM was found for `C[C@@H]1CN(c2ncc(C(F)(F)F)cn2)C[C@@H](C)N1C(=O)NCC1CC2(C1)CN(Cc1ccccc1)C2` [Compound 68, (2R,6R)-N-({2-benzyl-2-azaspiro[3.3]heptan-6-yl}methyl)-2,6-dimethyl-4-[5-(trifluoromethyl)pyrimidin-2-yl]piperazine-1-carboxamide] in this work. A Ki of 10 to 100 nM was found for `C[C@@H]1CN(c2cnc(OC(F)(F)F)cn2)[C@H](C)CN1C(=O)OC1CC2(C1)CN(Cc1ccccc1)C2` [Compound 205, 2-benzyl-2-azaspiro[3.3]heptan-6-yl (2R,5R)-2,5-dimethyl-4-[5-(trifluoromethoxy)pyrazin-2-yl]piperazine-1-carboxylate] in this work. A Ki of 10 to 100 nM was found for `C[C@@H]1CN(c2nc3ccc(F)cc3s2)C[C@@H](C)N1C(=O)OC1CC2(C1)CN(Cc1ccccc1)C2` [Compound 369, 2-benzy-2-azaspiro[3.3]heptan-6-yl (2R,6R)-4-(6-fluoro-1,3-benzothiazol-2-yl)-2,6-dimethylpiperazine-1-carboxylate] in this work. A Ki of 10 to 100 nM was found for `C[C@@H]1CN(c2cnc(C(F)(F)F)cn2)CCN1C(=O)OC1CC2(C1)CN(Cc1ccc(F)cc1)C2` [Compound 458, 2-[(4-fluorophenyl)methyl]-2-azaspiro[3.3]heptan-6-yl (2R)-2-methyl-4-[5-(trifluoromethyl)pyrazin-2-yl]piperazine-1-carboxylate] in this work.
